Data published in ChEMBL document CHEMBL1201862, “PubChem BioAssay data set” (2004).
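In this assay, cells in 96-well plates receive the compound at five concentrations for 48 hours. Endpoints are linearly interpolated between the surrounding concentrations. GI50 = concentration required for 50% inhibition of growth.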 Active and inactive are the calls of the source. Cut-off read from the data, not from the text of the source: active = GI50 up to about 1.1 µM and inactive = higher.

Experiments:
Assay in all cases: NCI anticancer screen, dose series, 48 h
HCT-116 = test system: HCT-116
UACC-62 = test system: UACC-62
ACHN = test system: ACHN
SF-268 = test system: SF-268
SK-MEL-2 = test system: SK-MEL-2
COLO 205 = test system: COLO 205
A498 = test system: A498
NCI-H522 = test system: NCI-H522
SR = test system: SR
NCI-H23 = test system: NCI-H23
HL-60 = test system: HL-60
SF-539 = test system: SF-539
M14 = test system: M14
HOP-62 = test system: HOP-62
SNB-75 = test system: SNB-75
SK-MEL-28 = test system: SK-MEL-28
DMS-273 = test system: DMS-273
KM12 = test system: KM12
SW-620 = test system: SW-620

Measured: GI50

C#CC(C)(C)Oc1cc(O)c2c(=O)c3ccccc3n(C)c2c1
inactive: HCT-116 > 100 µM | UACC-62 > 100 µM | ACHN 86.1 µM | SF-268 > 100 µM | SK-MEL-2 > 100 µM | COLO 205 > 100 µM | A498 > 100 µM | NCI-H522 > 100 µM | SR 17.3 µM | NCI-H23 > 100 µM | HL-60 > 100 µM | SF-539 15.5 µM | M14 > 100 µM | HOP-62 94 µM | SNB-75 40.4 µM | SK-MEL-28 > 100 µM | DMS-273 23.1 µM

CCOC(=O)C1C(c2ccc(Cl)cc2Cl)NC(c2ccc(C)cc2)C(C(=O)OC)S1(=O)=O (stereo unspecified)
inactive: UACC-62 53.1 µM | ACHN 80.4 µM | SF-268 72.9 µM | SK-MEL-2 95.1 µM | COLO 205 > 100 µM | A498 > 100 µM | NCI-H522 > 100 µM | SR 69 µM | NCI-H23 66.8 µM | HL-60 55.8 µM | KM12 > 100 µM | SF-539 > 100 µM | M14 > 100 µM | HOP-62 > 100 µM | SW-620 > 100 µM | SNB-75 20.1 µM | SK-MEL-28 > 100 µM | DMS-273 85.5 µM

O=[N+]([O-])c1ccc(N=P(c2ccccc2)(c2ccccc2)c2ccccc2)n2nnnc12
inactive: UACC-62 37.3 µM | ACHN 43.5 µM | SF-268 36.1 µM | SK-MEL-2 33.7 µM | COLO 205 82 µM | A498 > 100 µM | NCI-H522 31 µM | NCI-H23 > 100 µM | HL-60 36.1 µM | KM12 66.4 µM | SF-539 23 µM | M14 > 100 µM | HOP-62 25.6 µM | SW-620 > 100 µM | SNB-75 21.9 µM | SK-MEL-28 > 100 µM | DMS-273 > 100 µM

O=C(Nc1ccccc1C(=O)NC(=O)c1ccccc1NC(=O)c1ccccc1)c1ccccc1
inactive: HCT-116 3.45 µM | UACC-62 2.07 µM | ACHN 17.9 µM | SF-268 6.85 µM | SK-MEL-2 1.87 µM | COLO 205 1.46 µM | A498 15.1 µM | SR 2.42 µM | NCI-H23 4.57 µM | KM12 1.58 µM | SF-539 5.09 µM | HOP-62 12.4 µM | SW-620 4.84 µM | SNB-75 2.83 µM | SK-MEL-28 3.13 µM | DMS-273 2.29 µM

COc1ccc2nc3cc(Cl)ccc3c(NCCC[N+](C)(C)CCCCCCCCCCCCCCCC[N+](C)(C)CCCNc3c4ccc(Cl)cc4nc4ccc(OC)cc34)c2c1
inactive: HCT-116 1.75 µM | UACC-62 2.69 µM | ACHN 6.22 µM | SF-268 2.11 µM | SK-MEL-2 1.79 µM | COLO 205 1.83 µM | A498 6.17 µM | NCI-H522 2.81 µM | NCI-H23 2 µM | HL-60 1.69 µM | KM12 1.64 µM | SF-539 2.25 µM | M14 4.7 µM | HOP-62 2.88 µM | SW-620 1.96 µM | SNB-75 2.83 µM | SK-MEL-28 2.08 µM | DMS-273 1.77 µM

O=C(NCCCCCCCCCCCCNC(=O)c1cccc2ccccc12)c1cccc2ccccc12
inactive: HCT-116 > 57.9 µM | UACC-62 > 100 µM | ACHN > 64 µM | SF-268 > 100 µM | SK-MEL-2 > 58.1 µM | COLO 205 > 100 µM | A498 > 47.9 µM | NCI-H522 > 100 µM | SR 47 µM | NCI-H23 > 64.1 µM | HL-60 31.3 µM | KM12 97.3 µM | SF-539 1.66 µM | M14 > 100 µM | HOP-62 2.98 µM | SW-620 > 67.5 µM | SNB-75 26.1 µM | SK-MEL-28 > 100 µM | DMS-273 > 100 µM

C=C1C(=O)OC2C/C(C)=C/CC/C(C)=C/CCC3(COC(C)=O)OC3CC12 (stereo unspecified)
inactive: HCT-116 1.84 µM | UACC-62 11.8 µM | ACHN 14.1 µM | SF-268 10 µM | SK-MEL-2 3.33 µM | COLO 205 4.55 µM | A498 13.8 µM | NCI-H522 1.51 µM | NCI-H23 11.8 µM | HL-60 2.21 µM | KM12 13.7 µM | SF-539 2.85 µM | M14 6.15 µM | HOP-62 18.7 µM | SW-620 2.04 µM | SNB-75 11.6 µM | SK-MEL-28 11.1 µM | DMS-273 3.87 µM

COc1ccccc1NC(=O)NS(=O)(=O)c1ccccc1
inactive: HCT-116 > 100 µM | ACHN 58.3 µM | SF-268 > 100 µM | SK-MEL-2 > 100 µM | COLO 205 > 100 µM | NCI-H522 63.7 µM | NCI-H23 > 100 µM | HL-60 > 100 µM | KM12 > 100 µM | SF-539 > 100 µM | M14 > 100 µM | HOP-62 69.2 µM | SW-620 > 100 µM | SNB-75 > 100 µM | SK-MEL-28 > 100 µM | DMS-273 > 100 µM

C=C1CC2OC(=O)C(=C)C2C(O)C2C(=C)CCC12 (stereo unspecified)
active: A498 0.31 µM
inactive: HCT-116 3.62 µM | UACC-62 3.48 µM | ACHN 9.04 µM | SF-268 16.7 µM | SK-MEL-2 15.7 µM | COLO 205 3.78 µM | SR 3.21 µM | NCI-H23 12.6 µM | HL-60 1.89 µM | KM12 10.8 µM | SF-539 3.69 µM | SW-620 3.82 µM | SNB-75 9.86 µM | SK-MEL-28 7.28 µM | DMS-273 8.2 µM

COc1c(I)c(OC)c2c(c1I)O[C@@H]1OCC[C@H]21
inactive: HCT-116 35.6 µM | UACC-62 32.5 µM | ACHN 17.3 µM | SK-MEL-2 19.9 µM | COLO 205 20 µM | A498 28.4 µM | SR 15.7 µM | NCI-H23 30.6 µM | HL-60 17.3 µM | KM12 29.7 µM | SF-539 > 100 µM | M14 24.9 µM | HOP-62 17.4 µM | SW-620 35 µM | SNB-75 27.2 µM | SK-MEL-28 34.2 µM | DMS-273 23.1 µM

COc1cc(Nc2cnc3cc(C(F)(F)F)ccc3n2)cc(OC)c1OC
inactive: HCT-116 > 100 µM | UACC-62 > 100 µM | ACHN > 100 µM | SF-268 > 100 µM | SK-MEL-2 > 100 µM | COLO 205 > 100 µM | SR > 100 µM | NCI-H23 > 100 µM | HL-60 > 100 µM | SF-539 > 100 µM | HOP-62 > 100 µM | SW-620 > 100 µM | SNB-75 > 100 µM | SK-MEL-28 > 100 µM | DMS-273 > 100 µM

Cc1ccc(S(=O)(=O)NC(=O)C#CCOC2CCCCO2)cc1 (stereo unspecified)
inactive: HCT-116 > 100 µM | UACC-62 > 100 µM | ACHN > 100 µM | SK-MEL-2 82.8 µM | A498 > 100 µM | SR > 100 µM | NCI-H23 > 100 µM | HL-60 > 100 µM | SF-539 > 100 µM | M14 > 100 µM | SW-620 > 100 µM | SNB-75 > 100 µM | SK-MEL-28 > 100 µM | DMS-273 > 100 µM

CC(C)N(C(=O)C12C3C4C1C1C2C3C41C(=O)C(C)(C)C)C(C)C (stereo unspecified)
inactive: HCT-116 92.9 µM | UACC-62 > 100 µM | ACHN > 100 µM | SF-268 > 100 µM | SK-MEL-2 > 100 µM | COLO 205 > 100 µM | A498 > 100 µM | NCI-H522 14 µM | NCI-H23 > 100 µM | HL-60 18.1 µM | KM12 > 100 µM | SF-539 > 100 µM | M14 > 100 µM | HOP-62 > 100 µM | SW-620 47.4 µM | SNB-75 > 100 µM | SK-MEL-28 > 100 µM | DMS-273 > 100 µM

CC1=C(C(=O)NCc2ccccc2)C(/C=C/c2ccccc2)C(C(=O)NCc2ccccc2)=C(C)N1
inactive: HCT-116 > 100 µM | UACC-62 > 100 µM | ACHN > 100 µM | SF-268 > 100 µM | SK-MEL-2 > 100 µM | A498 > 100 µM | SR > 100 µM | NCI-H23 > 100 µM | HL-60 > 100 µM | KM12 > 100 µM | SF-539 > 100 µM | M14 > 100 µM | HOP-62 > 100 µM | SW-620 > 100 µM | SNB-75 85.9 µM | SK-MEL-28 > 100 µM | DMS-273 > 100 µM

O=C(c1ccccc1)c1nc2ccc(Cl)cc2c2c1Cc1ccccc1-2
inactive: HCT-116 > 100 µM | UACC-62 > 100 µM | ACHN > 100 µM | SF-268 > 100 µM | SK-MEL-2 > 100 µM | COLO 205 > 100 µM | NCI-H522 > 100 µM | SR > 100 µM | NCI-H23 > 100 µM | KM12 > 100 µM | SF-539 > 100 µM | M14 > 100 µM | HOP-62 > 100 µM | SW-620 > 100 µM | SNB-75 46.5 µM | SK-MEL-28 > 100 µM | DMS-273 > 100 µM

Cc1cc(Cl)ccc1NC(=O)CCCC(=O)C1C/C(=N/O)CC/C1=N\O (stereo unspecified)
inactive: HCT-116 > 100 µM | UACC-62 > 100 µM | ACHN > 100 µM | SF-268 > 100 µM | SK-MEL-2 > 100 µM | COLO 205 > 100 µM | A498 > 100 µM | NCI-H522 > 100 µM | NCI-H23 > 100 µM | HL-60 > 100 µM | KM12 > 100 µM | SF-539 > 100 µM | M14 > 100 µM | HOP-62 > 100 µM | SW-620 > 100 µM | SNB-75 > 100 µM | SK-MEL-28 > 100 µM | DMS-273 > 100 µM
